Source: US7077859B2, “Apparatus and methods for variably controlled substance delivery from implanted prostheses” (Avantec Vascular Corporation, priority 2000, dated 2006)

Legend:
[1] = test system: porcine smooth muscle cell cultures; assay: Thymidine incorporation (proliferation) in porcine smooth muscle cell cultures; assay type: cell-based; settings: for IC50: Sus scrofa, amount of incorporated thymidine, concentrations 0.003-156 micromolar, FIGS. 20A-B, read-out: IC50 (concentration at which 50% of the cells are prevented from proliferating)
Protocol: In order to assess the effect of therapeutic capable agents of the present invention on cell cultures, samples of 5 sets of therapeutic capable agents, as listed below, in varying concentrations were prepared and added to different groups of porcine smooth muscle cell cultures according to standard procedures. Set A, B, C, D, and E corresponded to therapeutic capable agent sets: Mycophenolic acid & Dexamethasone; Mycophenolic acid & Triptolide; Wortmannin and Methotrexate; Triptolide; Mycophenolate Mofetil; respectively. The amount of incorporated thymidine for the different samples of varying concentrations (0.003, 0.031, 0.31, 1.6, and 3.1 micromolar) was measured.
In another group of therapeutic capable agents, the amount of incorporated thymidine for samples of varying concentrations (0.003, 0.031, 0.31, 1.6, 3.1, 31, and 156 micromolar) was measured.

[2] = Half life of mycophenolic acid bound to BSA (MPA-BSA), assayed by liquid chromatography; assay type: in vitro ADME
From the text: The MPA-BSA has an increases half time (as measured by assaying methods such as liquid chromotography) as compared to mycophenolic acid alone and as shown in the table below: […]

**Q.** For `COc1c(C)c2c(c(O)c1C/C=C(\C)CCC(=O)O)C(=O)OC2` [Mycophenolic acid, mycophenolic acid], which IC50 [1] is on record?
**A.** The IC50 was 1 µM.

**Q.** And the Cell death (cell cultures)?
**A.** Its Cell death is “did not lead to significant cell death”.

**Q.** Which Cell death (cell cultures) does the source give for `CN(Cc1cnc2nc(N)nc(N)c2n1)c1ccc(C(=O)N[C@@H](CCC(=O)O)C(=O)O)cc1` [Methotrexate] here?
**A.** Its Cell death is “did not lead to significant cell death”.

**Q.** With `CC(C)[C@]12O[C@H]1[C@@H]1O[C@]13[C@]1(O[C@H]1C[C@H]1C4=C(CC[C@@]13C)C(=O)OC4)[C@@H]2O` [Triptolide] as the compound, how does the Cell death (cell cultures) read?
**A.** The Cell death was “did not lead to significant cell death”.

**Q.** Which “Effectiveness on cell proliferation (incorporated thymidine)” value ([1]; porcine smooth muscle cell cultures, 0.003-3.1 micromolar, FIG. 19E) does the source give for `COc1c(C)c2c(c(O)c1C/C=C(\C)CCC(=O)OCCN1CCOCC1)C(=O)OC2` [Mycophenolate Mofetil] here?
**A.** Its value is “may not be as effective in the absence of a bio-condition”.

**Q.** What does the source list for “MPA-BSA: mycophenolic acid (MPA) bound to Bovine Serum Albumin disposed adjacent the rate-controlling element, forming a complex”?
**A.** Half Life (T) ([2]; Blood or Tissue BSA Concentration 1%): 1.27 h; Half Life (T) ([2]; Blood or Tissue BSA Concentration 2%): 2.02 h; Half Life (T) ([2]; Blood or Tissue BSA Concentration 4%): 6.07 h; Half Life (T) ([2]; Blood or Tissue BSA Concentration 6%): 32.07 h; Stability of the complex compared to mycophenolic acid alone ([2]; metabolism to glucuronide derivative): more stable than mycophenolic acid alone

**Q.** Which IC50 [1] does the source give for `C[C@H]1C[C@@H]2[C@H]([C@@H](O)C[C@@]3(C)[C@H]2CC[C@]3(O)C(=O)CO)[C@@]2(C)C=CC(=O)C=C12` [Methylprednisolone, methylprednisolone] here?
**A.** The IC50 was 1 µM.

**Q.** For `C[C@@H]1C[C@H]2[C@@H]3CCC4=CC(=O)C=C[C@]4(C)[C@@]3(F)[C@@H](O)C[C@]2(C)[C@@]1(O)C(=O)CO` [Dexamethasone], which Cell death (cell cultures) is on record?
**A.** The Cell death was “did not lead to significant cell death”.
